Assays:
human ASK1 kinase = target: T1, human ASK1 kinase (Homo sapiens, UniProt Q99683); assay: Determination of ASK1 inhibitor activity (IMAP FP assay of example 52 or AlphaLISA assay of example 53)
T1 sequence (Q99683 1-1374): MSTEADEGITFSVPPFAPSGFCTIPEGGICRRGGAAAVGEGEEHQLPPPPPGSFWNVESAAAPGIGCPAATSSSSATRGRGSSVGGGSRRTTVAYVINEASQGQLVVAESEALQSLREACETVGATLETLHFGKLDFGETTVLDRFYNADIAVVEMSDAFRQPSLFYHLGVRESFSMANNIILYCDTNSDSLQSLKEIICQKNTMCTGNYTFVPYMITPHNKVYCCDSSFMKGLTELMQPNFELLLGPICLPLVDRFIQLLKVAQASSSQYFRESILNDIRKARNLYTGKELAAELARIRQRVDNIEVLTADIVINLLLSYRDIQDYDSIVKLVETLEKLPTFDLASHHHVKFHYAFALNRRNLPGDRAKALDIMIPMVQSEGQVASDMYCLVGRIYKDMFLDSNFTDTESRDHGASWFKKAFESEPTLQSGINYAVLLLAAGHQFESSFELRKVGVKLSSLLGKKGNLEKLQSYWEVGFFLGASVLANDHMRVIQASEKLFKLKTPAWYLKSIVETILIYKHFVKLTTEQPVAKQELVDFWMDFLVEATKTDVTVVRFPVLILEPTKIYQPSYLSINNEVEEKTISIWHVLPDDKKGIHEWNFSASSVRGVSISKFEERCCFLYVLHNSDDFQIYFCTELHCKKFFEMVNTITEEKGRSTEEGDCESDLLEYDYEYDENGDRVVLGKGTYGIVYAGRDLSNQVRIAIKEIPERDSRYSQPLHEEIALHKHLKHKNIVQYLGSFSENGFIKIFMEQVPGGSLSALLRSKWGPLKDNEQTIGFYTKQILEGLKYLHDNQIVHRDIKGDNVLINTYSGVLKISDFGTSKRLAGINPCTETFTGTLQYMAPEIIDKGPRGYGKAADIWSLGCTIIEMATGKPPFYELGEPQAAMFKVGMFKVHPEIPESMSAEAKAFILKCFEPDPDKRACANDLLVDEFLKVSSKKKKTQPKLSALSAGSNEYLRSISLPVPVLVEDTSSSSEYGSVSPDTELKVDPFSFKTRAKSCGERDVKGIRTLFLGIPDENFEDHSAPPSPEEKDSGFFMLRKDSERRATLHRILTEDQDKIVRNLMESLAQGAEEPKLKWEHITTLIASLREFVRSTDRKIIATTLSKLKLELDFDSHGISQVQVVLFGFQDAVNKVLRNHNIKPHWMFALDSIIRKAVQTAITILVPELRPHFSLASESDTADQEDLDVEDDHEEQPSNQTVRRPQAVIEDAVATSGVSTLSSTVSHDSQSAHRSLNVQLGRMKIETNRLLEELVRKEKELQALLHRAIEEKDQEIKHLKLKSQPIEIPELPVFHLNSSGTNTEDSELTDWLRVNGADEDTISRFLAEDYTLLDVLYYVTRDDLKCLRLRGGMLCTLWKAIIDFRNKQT

[1] = test system: CCI-induced mechanical allodynia; conditions: rat CCI model
[2] = test system: FCA-induced inflammatory mechanical hypersensitivity

| Compound | IC50 (human ASK1 kinase) | effect on mechanical allodynia caused by nerve injury in the CCI model [1] | effect on inflammatory mechanical hypersensitivity caused by FCA (weightbearing) ([2]; dosed orally 24 hours after FCA injection, at 30 mg/kg) | effect on inflammatory mechanical hypersensitivity (FIG. 2, weightbearing) ([2]; rats, 3 mg/kg po and 30 mg/kg po, 24 hours after intraplantar FCA, measured 1 hour after dosing) |
| --- | --- | --- | --- | --- |
| O=C(NC1CCN(c2nc[nH]c3nccc2-3)CC1)c1ccc(N2CCCC2)cc1 [4-(1-pyrrolidinyl)-N-[1-(1H-pyrrolo[2,3-d]pyrimidin-4-yl)-4-piperidinyl]benzamide] | 25.1 µM |  |  |  |
| Cc1c[nH]c2ncnc(N3CCC(NC(=O)c4ccccc4)CC3)c12 [Example 17] |  | partially reversed the mechanical allodynia | partially reverse the inflammatory mechanical hypersensitivity | reverses inflammatory mechanical hypersensitivity |
